The text below walks through data of ChEMBL document CHEMBL1149564, “Synthesis and bioevaluation of N-(arylalkyl)-homospermidine conjugates” (Bioorg Med Chem Lett, 2007).

By IC50 is commonly meant the concentration that gives 50% inhibition. Low values mean higher potency, high ones lower potency.

In the first experiment the test system is L1210. Description: Cytotoxicity against mouse L1210 cells by MTT assay. It is filed as functional, cell-based. In general terms: Tetrazolium assays rely on reduction of a dye to a coloured formazan, in cell work by metabolically active cells.
Compound `Cl.c1ccc2cc(CNCCCCNCCCCN3CCNCC3)ccc2c1` returned an IC50 of 35.8 µM.

The compound `Cl.NCCCCNCCCCNCc1ccc(-c2ccccc2)cc1` yielded an IC50 of 9.98 µM.

`Cl.c1ccc2c(CNCCCCNCCCCN3CCNCC3)c3ccccc3cc2c1` registered an IC50 greater than 50 µM.

Take `Cl.NCCCCNCCCCNCc1c2ccccc2cc2ccccc12`: the IC50 came to 4.8 µM.

On to `Cl.NCCCCNCCCCNCC1CCCc2ccccc21` (stereo not given), for which half-maximal inhibition (IC50) required 14.8 µM.

Consider `Cl.NCCCCNCCCCNCc1ccc2ccccc2c1`, for which half-maximal inhibition (IC50) was put at 16.9 µM.

For `Cl.NCCCCNCCCCNCc1cccc2ccccc12`, half-maximal inhibition (IC50) required 8.04 µM.

Consider `COc1ccc2cc(CNCCCCNCCCCN3CCNCC3)ccc2c1.Cl`, for which the IC50 was 15.1 µM.

Compound `COc1ccc2cc(CNCCCCNCCCCN)ccc2c1.Cl` showed an IC50 of 15.1 µM.

`Cl.c1ccc2c(CNCCCCNCCCCN3CCNCC3)cccc2c1`: the 50% inhibitory concentration (IC50) was greater than 50 µM.

The compound `Cl.c1ccc(-c2ccc(CNCCCCNCCCCN3CCNCC3)cc2)cc1` gave an IC50 of 20.3 µM.

Another experiment deals with B16. Description: Cell cycle arrest in B16 cells by accumulation at G1 phase at 0.1 uM after 24 hrs. It is filed as functional, Mus musculus.
With `Cl.NCCCCNCCCCNCc1ccc(-c2ccccc2)cc1`, the Activity is on record as 49.18%.

Turning to `Cl.NCCCCNCCCCNCc1c2ccccc2cc2ccccc12`, the Activity is listed as 77.99%.

A further experiment concerns FL5.12. Description: Induction of apoptosis in BALB/c mouse FL5.12A pro-B cells in the presence of 0.1 ng/mL IL3. In kind it is functional.
For the compound `N=C(N)NN` [PIMAGEDINE], the Activity came to 3%.

A further experiment concerns B16. Description: Induction of apoptosis in B16 cells at 0.1 uM after 24 hrs. It is filed as functional, Mus musculus.
With `Cl.NCCCCNCCCCNCc1ccc(-c2ccccc2)cc1`, the Activity was 17.35%.

Consider `Cl.NCCCCNCCCCNCc1c2ccccc2cc2ccccc12`, for which the Activity is listed as 12.49%.

The next experiment relates to HeLa. Description: Cytotoxicity against human HeLa cells by MTT assay. It is filed as functional, cell-based.
`Cl.c1ccc2cc(CNCCCCNCCCCN3CCNCC3)ccc2c1` showed an IC50 of 3.7 µM.

`CCCCNCc1ccc(-c2ccccc2)cc1`: inhibition was half-maximal at 10.9 µM (IC50).

Turning to `Cl.NCCCCNCCCCNCc1ccc(-c2ccccc2)cc1`, the IC50 amounted to 3.61 µM.

`Cl.c1ccc2c(CNCCCCNCCCCN3CCNCC3)c3ccccc3cc2c1` yielded an IC50 of 9.58 µM.

With `Cl.NCCCCNCCCCNCc1c2ccccc2cc2ccccc12`, the IC50 came out at 1.1 µM.

Turning to `Cl.NCCCCNCCCCNCc1ccc2ccccc2c1`, the IC50 turned out to be 1.9 µM.

With `Cl.NCCCCNCCCCNCc1cccc2ccccc12`, the IC50 stood at 1.38 µM.

Consider `COc1ccc2cc(CNCCCCNCCCCN3CCNCC3)ccc2c1.Cl`, for which the IC50 is 11.3 µM.

The compound `COc1ccc2cc(CNCCCCNCCCCN)ccc2c1.Cl` had an IC50 of 1.2 µM.

The compound `Cl.c1ccc2c(CNCCCCNCCCCN3CCNCC3)cccc2c1` had an IC50 of 3.6 µM.

On to `Cl.c1ccc(-c2ccc(CNCCCCNCCCCN3CCNCC3)cc2)cc1`, for which 26.8 µM corresponded to half-maximal inhibition (IC50).

As for `CCCCNCc1ccc2cc(OC)ccc2c1`, half-maximal inhibition (IC50) required 12.5 µM.

The subject of another experiment is B16. Description: Cell cycle arrest in B16 cells by accumulation at G2 phase at 1 uM after 24 hrs. In kind it is functional, Mus musculus.
`Cl.NCCCCNCCCCNCc1ccc(-c2ccccc2)cc1`: the Activity is on record as 0.04%.

The compound `Cl.NCCCCNCCCCNCc1c2ccccc2cc2ccccc12` had an Activity of 10.1%.

In the next experiment the test system is B16. Description: Cell cycle arrest in B16 cells by accumulation at G1 phase at 1 uM after 24 hrs. It is filed as functional, Mus musculus.
In turn, `Cl.NCCCCNCCCCNCc1ccc(-c2ccccc2)cc1` yielded an Activity of 39.13%.

The compound `Cl.NCCCCNCCCCNCc1c2ccccc2cc2ccccc12` came in with an Activity of 80.19%.

Another experiment has as its system L1210. Description: Ratio of IC50 for mouse L1210 cells to IC50 for mouse L1210 cells in presence of […]. In kind it is functional.
`Cl.c1ccc2cc(CNCCCCNCCCCN3CCNCC3)ccc2c1`: the “Ratio IC50” value was 1.53.

On to `Cl.NCCCCNCCCCNCc1ccc(-c2ccccc2)cc1`, for which the “Ratio IC50” value is listed as 2.05.

In the case of `Cl.c1ccc2c(CNCCCCNCCCCN3CCNCC3)c3ccccc3cc2c1`, the “Ratio IC50” value was greater than 2.5.

For the compound `Cl.NCCCCNCCCCNCc1c2ccccc2cc2ccccc12`, the “Ratio IC50” value came to 1.33.

As to `Cl.NCCCCNCCCCNCC1CCCc2ccccc21` (stereo not given), the “Ratio IC50” value was determined as 1.63.

Regarding `Cl.NCCCCNCCCCNCc1ccc2ccccc2c1`, the “Ratio IC50” value is 2.08.

As to `Cl.NCCCCNCCCCNCc1cccc2ccccc12`, the “Ratio IC50” value was found to be 1.58.

Turning to `COc1ccc2cc(CNCCCCNCCCCN3CCNCC3)ccc2c1.Cl`, the “Ratio IC50” value is 1.76.

For the compound `COc1ccc2cc(CNCCCCNCCCCN)ccc2c1.Cl`, the “Ratio IC50” value is recorded as 2.69.

Take `Cl.c1ccc2c(CNCCCCNCCCCN3CCNCC3)cccc2c1`: the “Ratio IC50” value is greater than 1.

Turning to `Cl.c1ccc(-c2ccc(CNCCCCNCCCCN3CCNCC3)cc2)cc1`, the “Ratio IC50” value was 2.71.

The subject of a further experiment is B16. Description: Cell cycle arrest in B16 cells by accumulation at G2 phase at 0.1 uM after 24 hrs. It is filed as functional, Mus musculus.
On to `Cl.NCCCCNCCCCNCc1ccc(-c2ccccc2)cc1`, for which the Activity is on record as 10.45%.

Turning to `Cl.NCCCCNCCCCNCc1c2ccccc2cc2ccccc12`, the Activity turned out to be 10.72%.

For a further experiment, the system named is B16. Description: Ratio of IC50 for mouse B16 cells in presence of SPD to IC50 for mouse B16 cells. In kind it is functional.
In the case of `Cl.c1ccc2cc(CNCCCCNCCCCN3CCNCC3)ccc2c1`, the “Ratio IC50” value is 9.

As to `Cl.NCCCCNCCCCNCc1ccc(-c2ccccc2)cc1`, the “Ratio IC50” value came to 2.4.

On to `Cl.c1ccc2c(CNCCCCNCCCCN3CCNCC3)c3ccccc3cc2c1`, for which the “Ratio IC50” value was 2.

Regarding `Cl.NCCCCNCCCCNCc1c2ccccc2cc2ccccc12`, the “Ratio IC50” value is listed as 6.6.

Turning to `Cl.NCCCCNCCCCNCC1CCCc2ccccc21` (stereo not given), the “Ratio IC50” value is reported as 1.7.

Take `Cl.NCCCCNCCCCNCc1ccc2ccccc2c1`: the “Ratio IC50” value is recorded as 3.8.

Turning to `Cl.NCCCCNCCCCNCc1cccc2ccccc12`, the “Ratio IC50” value stood at 2.5.

For `COc1ccc2cc(CNCCCCNCCCCN)ccc2c1.Cl`, the “Ratio IC50” value was 3.6.

`Cl.c1ccc2c(CNCCCCNCCCCN3CCNCC3)cccc2c1`: the “Ratio IC50” value turned out to be 2.3.

Another experiment concerns B16. Description: Cell cycle arrest in B16 cells by accumulation at S phase at 1 uM after 24 hrs. It is filed as functional, Mus musculus.
With `Cl.NCCCCNCCCCNCc1ccc(-c2ccccc2)cc1`, the Activity was 68.83%.

`Cl.NCCCCNCCCCNCc1c2ccccc2cc2ccccc12`: the Activity came to 10.1%.

A further experiment deals with B16. Description: Cell cycle arrest in B16 cells by accumulation at S phase at 0.1 uM after 24 hrs. In kind it is functional, Mus musculus.
In turn, `Cl.NCCCCNCCCCNCc1ccc(-c2ccccc2)cc1` returned an Activity of 40.37%.

The compound `Cl.NCCCCNCCCCNCc1c2ccccc2cc2ccccc12` returned an Activity of 11.29%.

A further experiment deals with FL5.12. Description: Induction of apoptosis in BALB/c mouse FL5.12A pro-B cells. In kind it is functional.
`N=C(N)NN` [PIMAGEDINE]: the Activity worked out at 80%.

A further experiment concerns B16. Description: Cytotoxicity against mouse B16 cells by MTT assay. It is filed as functional, cell-based.
On to `Cl.c1ccc2cc(CNCCCCNCCCCN3CCNCC3)ccc2c1`, for which it took 2.89 µM to reach half-maximal inhibition (IC50).

`CCCCNCc1ccc(-c2ccccc2)cc1` had an IC50 of 10.8 µM.

Consider `Cl.NCCCCNCCCCNCc1ccc(-c2ccccc2)cc1`, for which half-maximal inhibition (IC50) required 1.22 µM.

`Cl.c1ccc2c(CNCCCCNCCCCN3CCNCC3)c3ccccc3cc2c1` displayed an IC50 of 6.07 µM.

For the compound `Cl.NCCCCNCCCCNCc1c2ccccc2cc2ccccc12`, half-maximal inhibition (IC50) was put at 0.31 µM.

As for `Cl.NCCCCNCCCCNCC1CCCc2ccccc21` (stereo not given), the IC50 turned out to be 6.96 µM.

In turn, `Cl.NCCCCNCCCCNCc1ccc2ccccc2c1` had an IC50 of 1.66 µM.

As to `Cl.NCCCCNCCCCNCc1cccc2ccccc12`, the IC50 stood at 2.33 µM.

On to `COc1ccc2cc(CNCCCCNCCCCN3CCNCC3)ccc2c1.Cl`, for which the IC50 is greater than 50 µM.

Compound `COc1ccc2cc(CNCCCCNCCCCN)ccc2c1.Cl` yielded an IC50 of 4.88 µM.

Consider `Cl.c1ccc2c(CNCCCCNCCCCN3CCNCC3)cccc2c1`, for which the IC50 was found to be 5.46 µM.

On to `Cl.c1ccc(-c2ccc(CNCCCCNCCCCN3CCNCC3)cc2)cc1`, for which the IC50 was greater than 50 µM.

`CCCCNCc1ccc2cc(OC)ccc2c1` displayed an IC50 of 15 µM.

The next experiment deals with FL5.12. Description: Induction of apoptosis in BALB/c mouse FL5.12A pro-B cells in the presence of 2 ng/mL IL3. It is filed as functional.
`N=C(N)NN` [PIMAGEDINE]: the Activity is 5%.

The next experiment concerns B16. Description: Induction of apoptosis in B16 cells at 1 uM after 24 hrs. In kind it is functional, Mus musculus.
For `Cl.NCCCCNCCCCNCc1ccc(-c2ccccc2)cc1`, the Activity is 42.47%.

`Cl.NCCCCNCCCCNCc1c2ccccc2cc2ccccc12` showed an Activity of 37.26%.
